Data on two compounds can be found in patent publication US20260176254A1, “INHIBITORS OF PROSTATE SPECIFIC MEMBRANE ANTIGEN AND USE THEREOF” (SHANGHAI SINOTAU BIOTECH. CO., LTD, priority 2023, published 2026).

The assay deals with T1, recombinant human PSMA (rhPSMA) (Homo sapiens, UniProt Q04609).
T1 construct: purchased Sino Biological
In words: Naaladase assay (fluorescence-based Naaladase activity inhibition). Format: biochemical. The settings on record: rhPSMA 0.4 μg/mL, substrate N-Acetyl-Asp-Glu 40 μM, 37° C. one hour. Here is the method: Naaladase activity inhibition was determined using a fluorescence-based assay. Briefly, the solution containing the substrate N-Acetyl-Asp-Glu (Sigma-Aldrich) at 40 μM and the compound at concentrations from 0.15 nM to 1000 nM was mixed at equal volume with recombinant human PSMA (rhPSMA, Sino Biological) at 0.4 μg/mL, in assay buffer (50 mM HEPES, 100 mM NaCl, pH 7.5). The enzymatic reaction was proceeded by incubation at 37° C. for one hour and then stopped by heating at 95° C. for 5 minutes. A solution of 15 mM ortho-phthaldialdehyde (Sigma-Aldrich) was added to all vials and incubated for 10 min at ambient temperature. The reaction solutions were loaded onto a 96-well flat clear bottom black microplates (Corning) and read at excitation and emission wavelengths of 330 and 450 nm, respectively, using a microplate reader (Tecan). The data were analyzed by a one-site total binding regression algorithm of GraphPad Prism (GraphPad Software).

T1 sequence (Q04609 whole entry): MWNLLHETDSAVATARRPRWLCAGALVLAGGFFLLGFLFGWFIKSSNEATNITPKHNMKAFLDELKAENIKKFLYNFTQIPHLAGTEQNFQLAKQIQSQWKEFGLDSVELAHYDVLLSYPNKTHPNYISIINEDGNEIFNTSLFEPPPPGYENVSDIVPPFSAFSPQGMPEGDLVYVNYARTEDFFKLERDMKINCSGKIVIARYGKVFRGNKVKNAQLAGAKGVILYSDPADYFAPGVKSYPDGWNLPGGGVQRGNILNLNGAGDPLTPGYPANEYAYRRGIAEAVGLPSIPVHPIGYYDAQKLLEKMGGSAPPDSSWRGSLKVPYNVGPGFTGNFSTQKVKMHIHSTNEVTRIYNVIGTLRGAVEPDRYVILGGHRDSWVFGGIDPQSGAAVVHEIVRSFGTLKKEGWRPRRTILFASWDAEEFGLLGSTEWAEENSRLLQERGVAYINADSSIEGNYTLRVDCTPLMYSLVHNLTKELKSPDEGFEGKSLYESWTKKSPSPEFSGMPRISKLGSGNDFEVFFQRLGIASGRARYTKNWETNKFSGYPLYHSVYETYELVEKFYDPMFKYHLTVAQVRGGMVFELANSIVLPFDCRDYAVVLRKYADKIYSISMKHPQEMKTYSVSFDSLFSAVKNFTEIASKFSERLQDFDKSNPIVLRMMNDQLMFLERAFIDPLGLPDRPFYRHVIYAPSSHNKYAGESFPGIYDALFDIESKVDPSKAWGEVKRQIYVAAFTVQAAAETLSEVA

A word on the IC50: it is the midpoint of a concentration-inhibition curve. On to `O=C(O)CC[C@H](NC(=O)N[C@@H](CCCCNC(=O)C(Cc1ccc2ccccc2c1)Nc1nnc(C23CCC(CNC(=O)CN4CCN(CC(=O)O)CCN(CC(=O)O)CCN(CC(=O)O)CC4)(CC2)CC3)o1)C(=O)O)C(=O)O` (single isomer, unassigned) [E17], for which the IC50 is 3.5 nM. Under `O=C(O)CC[C@H](NC(=O)N[C@@H](CCCCNC(=O)C(Cc1ccc2ccccc2c1)Nc1nnc(C23CCC(CNC(=O)CN4CCN(CC(=O)O)CCN(CC(=O)O)CCN(CC(=O)O)CC4)(CC2)CC3)o1)C(=O)O)C(=O)O` (single isomer, unassigned) [E18] stands 3.7 nM.
